Assay results from patent US8350027B2, “Dual-acting pyrazole antihypertensive agents” (Theravance, Inc., priority 2009, dated 2013).

What was measured:
human AT1 receptor = biological target: T1, human AT1 receptor (Homo sapiens, UniProt P30556); assay: AT1 radioligand binding assay (displacement of [Eu]AngII); details: membranes of CHO-K1 cells expressing cloned human AT1 receptor; values given as lower bounds; read-out: AT1 pKi (converted)
T1 construct: expressed in transfected cells; host or cells: CHO-K1
T1 sequence (P30556 1-359): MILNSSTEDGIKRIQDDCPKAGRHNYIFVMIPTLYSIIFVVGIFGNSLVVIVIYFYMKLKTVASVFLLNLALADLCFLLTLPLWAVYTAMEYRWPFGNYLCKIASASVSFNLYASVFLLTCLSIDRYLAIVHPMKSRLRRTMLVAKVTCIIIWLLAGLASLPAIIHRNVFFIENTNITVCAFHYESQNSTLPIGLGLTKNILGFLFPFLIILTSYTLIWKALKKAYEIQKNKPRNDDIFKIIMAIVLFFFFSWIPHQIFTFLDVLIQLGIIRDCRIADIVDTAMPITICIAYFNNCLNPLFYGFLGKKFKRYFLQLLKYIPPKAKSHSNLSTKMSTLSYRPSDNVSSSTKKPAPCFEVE
Procedure: A. AT1 and AT2 Radioligand Binding Assays
These in vitro assays were used to assess the ability of test compounds to bind to the AT1 and the AT2 receptors.
Membrane Preparation from Cells Expressing Human AT1 or AT2 Receptors
Chinese hamster ovary (CHO-K1) derived cell lines stably expressing the cloned human AT1 or AT2 receptors, respectively, were grown in HAM's-F12 medium supplemented with 10% fetal bovine serum, 10 μg/ml penicillin/streptomycin, and 500 μg/ml geneticin in a 5% CO2 humidified incubator at 37° C. AT2 receptor expressing cells were grown in the additional presence of 100 nM PD123,319 (AT2 antagonist). When cultures reached 80-95% confluence, the cells were washed thoroughly in PBS and lifted with 5 mM EDTA. Cells were pelleted by centrifugation and snap frozen in MeOH-dry ice and stored at −80° C. until further use.
For membrane preparation, cell pellets were resuspended in lysis buffer (25 mM Tris/HCl pH 7.5 at 4° C., 1 mM EDTA, and one tablet of Complete Protease Inhibitor Cocktail Tablets with 2 mM EDTA per 50 mL buffer (Roche cat.#1697498, Roche Molecular Biochemicals, Indianapolis, Ind.)) and homogenized using a tight-fitting Dounce glass homogenizer (10 strokes) on ice. The homogenate was centrifuged at 1000×g, the supernatant was collected and centrifuged at 20,000×g. The final pellet was resuspended in membrane buffer (75 mM Tris/HCl pH 7.5, 12.5 mM MgCl2, 0.3 mM EDTA, 1 mM EGTA, 250 mM sucrose at 4° C.) and homogenized by extrusion through a 20G gauge needle. Protein concentration of the membrane suspension was determined by the method described in Bradford (1976) Anal Biochem. 72:248-54. Membranes were snap frozen in MeOH-dry ice and stored at −80° C. until further use.
Ligand Binding Assay to Determine Compound Affinities for the Human AT1 and AT2 Angiotensin Receptors
Binding assays were performed in 96-well Acrowell filter plates (Pall Inc., cat.#5020) in a total assay volume of 100 μL with 0.2 μg membrane protein for membranes containing the human AT1 receptor, or 2 μg membrane protein for membranes containing the human AT2 receptor in assay buffer (50 mM Tris/HCl pH 7.5 at 20° C., 5 mM MgCl2, 25 μM EDTA, 0.025% BSA). Saturation binding studies for determination of Kd values of the ligand were done using N-terminally Europium-labeled angiotensin-II ([Eu]AngII, H-(Eu-N^1)-Ahx-Asp-Arg-Val-Tyr-Ile-His-Pro-Phe-OH; PerkinElmer, Boston, Mass.) at 8 different concentrations ranging from 0.1 nM to 30 nM. […] Drugs were dissolved to a concentration of 1 mM in DMSO and from there serially diluted into assay buffer. Non-specific binding was determined in the presence of 10 μM unlabeled angiotensin-II. Assays were incubated for 120 minutes in the dark, at room temperature or 37° C., and binding reactions were terminated by rapid filtration through the Acrowell filter plates followed by three washes with 200 μL ice cold wash buffer (50 mM Tris/HCl pH 7.5 at 4° C., 5 mM MgCl2) using a Waters filtration manifold. Plates were tapped dry and incubated with 50 μl DELFIA Enhancement Solution (PerkinElmer cat.#4001-0010) at room temperature for 5 minutes on a shaker. Filter-bound [Eu]AngII was quantitated immediately on a Fusion plate reader (PerkinElmer) using Time Resolved Fluorescence (TRF). Binding data were analyzed by nonlinear regression analysis with the GraphPad Prism Software package (GraphPad Software, Inc., San Diego, Calif.) using the 3-parameter model for one-site competition. The BOTTOM (curve minimum) was fixed to the value for nonspecific binding, as determined in the presence of 10 μM angiotensin II. Ki values for drugs were calculated from observed IC50 values and the Kd value of [Eu]AngII according to the Cheng-Prusoff equation described in Cheng et al. (1973) Biochem Pharmacol. 22 (23):3099-108. Selectivities of test compounds for the AT1 receptor over the AT2 receptor were calculated as the ratio of AT2Ki/AT1Ki. […]

NEP enzyme = biological target: T2, NEP enzyme (Homo sapiens, UniProt P08473); assay: NEP enzyme inhibition assay (fluorogenic peptide substrate); type: biochemical; details: values given as lower bounds; * = prodrugs, may not exhibit NEP activity in an in vitro assay; read-out: NEP pIC50 (converted)
T2 construct: purchased R&D Systems, Minneapolis, Minn; 1182-ZN
Procedure: B. In Vitro Assays for the Quantitation of Inhibitor Potencies (IC50) at Human and Rat NEP, and Human ACE
The inhibitory activities of compounds at human and rat NEP and human ACE were determined using in vitro assays as described below.
Recombinant human NEP and recombinant human ACE were obtained commercially (R&D Systems, Minneapolis, Minn., catalog numbers 1182-ZN and 929-ZN, respectively). The fluorogenic peptide substrate Mca-BK2 (Mca-Arg-Pro-Pro-Gly-Phe-Ser-Ala-Phe-Lys(Dnp)-OH; Johnson et al. (2000) Anal. Biochem. 286: 112-118) was used for the human NEP and ACE assays, and Mca-RRL (Mca-DArg-Arg-Leu-(Dnp)-OH; Medeiros et al. (1997) Braz. J. Med. Biol. Res. 30:1157-1162) was used for the rat NEP assay (both from Anaspec, San Jose, Calif.).
The assays were performed in 384-well white opaque plates at room temperature using the respective fluorogenic peptides at a concentration of 10 μM in assay buffer (50 mM Tris/HCl at 25° C., 100 mM NaCl, 0.01% Tween-20, 1 μM Zn, 0.025% BSA). […] The rat NEP enzyme preparation was used at a concentration that yielded quantitative proteolysis of 3 μM of Mca-RRL within 20 minutes at room temperature.
Test compounds were diluted to 12 concentrations from 10 μM to 20 pM in Assay Buffer. Assays were started by adding 25 μL of enzyme to 12.5 μL of test compound at each of the 12 concentrations. Test compounds were allowed to equilibrate with the enzyme for 10 minutes before 12.5 μL of the fluorogenic substrates were added to initiate the reaction. Reactions were terminated by the addition of 10 μL of 3.6% glacial acetic acid after 20 minutes of incubation.
For sulfhydryl-containing test compounds, the test compounds may be diluted in Assay Buffer containing a 400 μM concentration of tris(2-carboxyethyl)phosphine hydrochloride (Thermo Scientific, Rockford, Ill.) (TCEP). The test compounds are then incubated for 40 minutes at room temperature (to allow for dimer cleavage) before adding the enzyme. Test compounds are then allowed to equilibrate with the enzyme for 20 minutes before adding the fluorogenic substrates. Reactions are terminated as above.
Plates were read on a fluorometer with excitation and emission wavelengths set to 320 nm and 405 nm, respectively. Raw data (relative fluorescence units) were normalized to % activity from the average high readings (no inhibition, 100% enzyme activity) and average low readings (full inhibition, highest inhibitor concentration, 0% enzyme activity) using three standard NEP and ACE inhibitors, respectively. Nonlinear regression of the normalized data was performed using a one site competition model (GraphPad Software, Inc., San Diego, Calif.). Data were reported as pIC50 values.

T2 sequence (P08473 52-750 limits assumed): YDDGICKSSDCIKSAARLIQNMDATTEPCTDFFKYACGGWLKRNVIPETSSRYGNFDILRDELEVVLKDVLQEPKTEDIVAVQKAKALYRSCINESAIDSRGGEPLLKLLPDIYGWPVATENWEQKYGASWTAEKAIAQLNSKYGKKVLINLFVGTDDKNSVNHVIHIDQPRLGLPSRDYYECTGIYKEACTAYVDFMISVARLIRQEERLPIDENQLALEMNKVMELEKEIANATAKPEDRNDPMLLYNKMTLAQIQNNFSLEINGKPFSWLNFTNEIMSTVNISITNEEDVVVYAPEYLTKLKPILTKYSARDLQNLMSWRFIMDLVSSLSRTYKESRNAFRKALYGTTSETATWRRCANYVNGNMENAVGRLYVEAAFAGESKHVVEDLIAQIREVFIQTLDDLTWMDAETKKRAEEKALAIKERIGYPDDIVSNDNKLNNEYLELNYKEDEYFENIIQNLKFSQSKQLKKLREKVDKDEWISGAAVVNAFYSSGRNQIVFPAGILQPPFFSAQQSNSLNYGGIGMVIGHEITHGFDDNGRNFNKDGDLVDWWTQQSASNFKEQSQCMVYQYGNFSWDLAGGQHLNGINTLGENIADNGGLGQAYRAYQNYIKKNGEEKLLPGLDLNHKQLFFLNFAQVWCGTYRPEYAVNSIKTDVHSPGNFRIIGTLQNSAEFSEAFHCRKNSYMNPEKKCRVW

Structure (SMILES) | Ki (human AT1 receptor) [nM] | IC50 (NEP enzyme) [nM]
CCCc1cc(C(=O)N[C@H](Cc2ccccc2)[C@@H](O)C(=O)OC)nn1Cc1ccc(-c2ccccc2-c2nnn[nH]2)cc1 [Example 3-12, (2R,3R)-2-Hydroxy-4-phenyl-3-({5-propyl-1-[2′-(1H-tetrazol-5-yl)-biphenyl-4-ylmethyl]-1H-pyrazole-3-carbonyl}amino)butyric acid methyl ester] | ≤ 10 | ≤ 10000
CCCc1cc(C(=O)N[C@@H](CC(=O)O)Cc2ccccc2Br)nn1Cc1ccc(-c2ccccc2-c2nnn[nH]2)cc1 [Example 3-13, (R)-4-(2-Bromophenyl)-3-({5-propyl-1-[2′-(1H-tetrazol-5-yl)-biphenyl-4-ylmethyl]-1H-pyrazole-3-carbonyl}amino)butyric acid] | ≤ 10 | ≤ 1000
CCCc1cc(C(=O)N[C@H](Cc2ccccc2)CN(O)C=O)nn1Cc1ccc(-c2ccccc2-c2nnn[nH]2)cc1 [Example 3-14, 5-Propyl-1-[2′-(1H-tetrazol-5-yl)-biphenyl-4-ylmethyl]-1H-pyrazole-3-carboxylic acid [(R)-1-benzyl-2-(formylhydroxyamino)ethyl]amide] | ≤ 10 | ≤ 100
CCCc1cc(C(=O)N[C@@H](CC(=O)NO)Cc2ccccc2Cl)nn1Cc1ccc(-c2ccccc2-c2nnn[nH]2)cc1 [Example 3-15, 5-Propyl-1-[2′-(1H-tetrazol-5-yl)-biphenyl-4-ylmethyl]-1H-pyrazole-3-carboxylic acid [(R)-2-(2-chlorophenyl)-1-hydroxycarbamoylmethylethyl]amide] | ≤ 10 | ≤ 100
CCCc1cc(C(=O)N[C@@H](CC(=O)NO)Cc2ccccc2)nn1Cc1ccc(-c2ccccc2-c2nnn[nH]2)cc1 [Example 3-16, 5-Propyl-1-[2′-(1H-tetrazol-5-yl)-biphenyl-4-ylmethyl]-1H-pyrazole-3-carboxylic acid ((R)-1-hydroxycarbamoylmethyl-2-phenylethyl)amide] | ≤ 10 | ≤ 100
CCCc1cc(C(=O)N[C@H](Cc2ccccc2)[C@@H](O)C(=O)NO)nn1Cc1ccc(-c2ccccc2-c2nnn[nH]2)cc1 [Example 3-17, 1-((2′-(1H-tetrazol-5-yl)biphenyl-4-yl)methyl)-N-((2R,3R)-3-hydroxy-4-(hydroxyamino)-4-oxo-1-phenylbutan-2-yl)-5-propyl-1H-pyrazole-3-carboxamide] | ≤ 10 | ≤ 100
CCCc1cc(C(=O)N[C@@H](CC(=O)O)Cc2ccccc2Cl)nn1Cc1ccc(-c2ccccc2-c2nnn[nH]2)c(F)c1 [Example 3-18, (R)-4-(2-Chlorophenyl)-3-({1-[2-fluoro-2′-(1H-tetrazol-5-yl)biphenyl-4-ylmethyl]-5-propyl-1H-pyrazole-3-carbonyl}amino)butyric acid] | ≤ 10 | ≤ 1000
CCCc1cc(C(=O)N[C@@H](CC(=O)O)Cc2ccccc2C(F)(F)F)nn1Cc1ccc(-c2ccccc2-c2nnn[nH]2)c(F)c1 [Example 3-19, (R)-3-({1-[2-Fluoro-2′-(1H-tetrazol-5-yl)-biphenyl-4-ylmethyl]-5-propyl-1H-pyrazole-3-carbonyl}amino)-4-(2-trifluoromethylphenyl)butyric acid] | ≤ 100 | ≤ 1000
CCCc1cc(C(=O)N[C@@H](CC(=O)O)Cc2ccccc2Cl)nn1Cc1ccc(-c2ccccc2-c2nnn[nH]2)cc1F [Example 3-20, (R)-4-(2-chlorophenyl)-3-(1-((3-fluoro-2′-(1H-tetrazol-5-yl)biphenyl-4-yl)methyl)-5-propyl-1H-pyrazole-3-carboxamido)butanoic acid] | ≤ 100 | ≤ 1000
CCCc1cc(C(=O)N[C@@H](CC(=O)O)Cc2ccccc2C(F)(F)F)nn1Cc1ccc(-c2ccccc2-c2nnn[nH]2)cc1F [Example 3-21, (R)-3-(1-((3-fluoro-2′-(1H-tetrazol-5-yl)biphenyl-4-yl)methyl)-5-propyl-1H-pyrazole-3-carboxamido)-4-(2-(trifluoromethyl)phenyl)butanoic acid] | ≤ 100 | ≤ 1000
CCCc1cc(C(=O)N[C@H](Cc2ccccc2Cl)[C@@H](O)C(=O)O)nn1Cc1ccc(-c2ccccc2-c2nnn[nH]2)cc1 [Example 3-22, (2R,3R)-3-(1-((2′-(1H-tetrazol-5-yl)biphenyl-4-yl)methyl)-5-propyl-1H-pyrazole-3-carboxamido)-4-(2-chlorophenyl)-2-hydroxybutanoic acid] | ≤ 100 | ≤ 100
CCCc1cc(C(=O)N[C@H](Cc2ccccc2)[C@@H](O)C(=O)O)nn1Cc1ccc(-c2ccccc2-c2nnn[nH]2)cc1F [Example 3-23, (2R,3R)-3-(1-((3-fluoro-2′-(1H-tetrazol-5-yl)biphenyl-4-yl)methyl)-5-propyl-1H-pyrazole-3-carboxamido)-2-hydroxy-4-phenylbutanoic acid] | ≤ 10 | ≤ 100
